Experimental data published in patent US6710047B2, “Phthalazines with angiogenesis inhibiting activity” (Novartis AG, priority 1997, dated 2004).
Counter-ions that a name gives are not always drawn. Like-named read-outs stand apart in the source and are kept apart here.

Experiments:
[1] = biological target: T1, Flt-1 VEGF-receptor tyrosine kinase (Homo sapiens, UniProt P17948); assay: Test for activity against Flt-1 VEGF-receptor tyrosine kinase
T1 sequence (P17948 827-1158 limits assumed): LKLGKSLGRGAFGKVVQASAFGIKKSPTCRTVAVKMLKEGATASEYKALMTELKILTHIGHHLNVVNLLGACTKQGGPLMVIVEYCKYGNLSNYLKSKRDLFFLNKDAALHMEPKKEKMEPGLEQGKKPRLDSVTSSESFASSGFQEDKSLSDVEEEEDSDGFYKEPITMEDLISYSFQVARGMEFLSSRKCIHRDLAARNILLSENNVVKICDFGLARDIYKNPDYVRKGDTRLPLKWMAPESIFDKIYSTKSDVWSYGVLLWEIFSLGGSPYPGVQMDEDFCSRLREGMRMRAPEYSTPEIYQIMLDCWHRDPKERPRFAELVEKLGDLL
Procedure: Test for activity against VEGF-receptor tyrosine kinase. The test is conducted using Flt-1 VEGF-receptor tyrosine kinase. […] The reaction is then ended by the addition of 10 μl 0.25 M ethylenediaminetetraacetate (EDTA) pH 7. Using a multichannel dispenser (LAB SYSTEMS, USA), an aliquot of 20 μl is applied to a PVDF (=polyvinyl difluoride) Immobilon P membrane (Millipore, USA), incorporating a Millipore microtiter filter manifold, and connected to a vacuum.
The test is conducted using Flt-1 VEGF-receptor tyrosine kinase, as described hereinabove.

[2] = kinase domain of Flt-1, poly(Glu,Tyr) 4:1, 8 μM [33P]-ATP, 15 minutes at room temperature

Row | IC50 [1] | melting point | IC50 [1, 2] | SMILES
1 | 593 nM | 194 to 196 °C |  | COc1ccc(Oc2nnc(Cc3ccncc3)c3ccccc23)cc1 [Example 72D]
2 | 615 nM | 176 to 178 °C |  | FC(F)(F)Oc1cccc(Nc2nnc(Cc3ccncc3)c3ccccc23)c1 [Example 67H]
3 | 284 nM | 207 to 208 °C |  | Clc1ccc(Oc2nnc(Cc3ccncc3)c3ccccc23)cc1 [Example 72B]
4 | 401 nM | 148 to 149 °C |  | CSc1cccc(Nc2nnc(Cc3ccncc3)c3ccccc23)c1 [Example 67D]
5 | 1270 nM |  |  | Clc1cccc(Oc2nnc(Cc3ccncc3)c3ccccc23)c1 [Example 72A, 1-(3-Chlorophenoxy)-4-(4-pyridylmethyl)phthalazine]
6 | 1200 nM |  |  | FC(F)C(F)(F)Oc1cccc(Nc2nnc(Cc3ccncc3)c3ccccc23)c1 [Example 67S]
7 | 11400 nM | 181 to 183 °C |  | Clc1ccc(Nc2nnc(Cc3ccncc3)c3c2CCCC3)cc1 [Example 44H, 1-(4-Chloroanilino) 4-(4-pyridylmethyl)-5,6,7,8-tetrahydrophthalazine]
8 | 42 nM | 210 to 212 °C |  | Cc1ccc(Nc2nnc(Cc3ccncc3)c3ccccc23)cc1F [Example 44C, 1-(3-Fluoro-4-methylanilino)-4-(4-pyridylmethyl)phthalazine]
9 | 335 nM |  |  | Cc1ccc(Nc2nnc(Cc3ccncc3)c3ccccc23)cc1O [Example 67B]
10 | 774 nM |  |  | Cc1ccc(Nc2nnc(Cc3ccncc3)c(C)c2C)cc1 [Example 82B, 3-(4-methylanilino)-4,5-dimethyl-6-(pyridin-4-yl)methylpyridazine]
11 | 490 nM | 223 to 224 °C |  | CCOc1ccc(Nc2nnc(Cc3ccncc3)c3ccccc23)cc1 [Example 44E, 1-(4-Ethoxyanilino)-4-(4-pyridylmethyl)phthalazine]
12 | 328 nM |  |  | CC(C)c1cccc(Nc2nnc(Cc3ccncc3)c3ccccc23)c1 [Example 67Q]
13 | 1200 nM | 193 to 195 °C |  | CCOc1cccc(Nc2nnc(Cc3ccncc3)c3ccccc23)c1 [Example 67F]
14 | 747 nM | 175 to 176 °C |  | Cc1ccc(Oc2nnc(Cc3ccncc3)c3ccccc23)cc1 [Example 72C]
15 |  |  | 1000 nM | CC1(c2ccc(Nc3nnc(Cc4ccncc4)c4ccccc34)cc2)OCCO1 [Example 70B, 1-[(2′-methyl-1′,3′-dioxolan-2′-yl)-anilino]-4-(4-pyridylmethyl)phthalazine]
16 | 1000 nM |  |  | CC(=O)c1cccc(Nc2nnc(Cc3ccncc3)c3ccccc23)c1 [Example 70A, 1-(3-Acetylanilino)-4-(4-pyridylmethyl)phthalazine]
17 | 478 nM |  |  | Cc1c(Cc2ccncc2)nnc(Nc2ccc(Cl)cc2)c1C [Example 82A, 3-(4-chloroanilino)-4,5-dimethyl-6-(pyridin-4-yl)methylpyridazine]
18 |  | 185 to 187 °C |  | FC(F)C(F)(F)Oc1cccc(Nc2nnc(Cc3ccncc3)c3ccccc23)c1 (hydrate or solvate) [Example 67S]
19 | 2500 nM |  |  | Cc1cccc(Nc2nnc(Cc3ccncc3)c(C)c2C)c1 [Example 82E, 3-(3-methylanilino)-4,5-dimethyl-6-(pyridin-4-yl)methylpyridazine]
20 |  | 192 to 195 °C |  | Cc1ccc(Nc2nnc(Cc3ccncc3)c3ccccc23)cc1O (hydrate or solvate) [Example 67B]

More lines, now with the values behind:

Row | SMILES | IC50 [1] | melting point | IC50 [1, 2]
21 | c1ccc(-c2ccc(Nc3nnc(Cc4ccncc4)c4ccccc34)cc2)cc1 |  | 189 to 191 °C | 
22 | c1ccc2c(NC3CCCCC3)nnc(Cc3ccncc3)c2c1 [Example 57, 1-Cyclohexylamino-4-(4-pyridylmethyl)phthalazine] | 16000 nM | 137 to 139 °C | 
23 | Clc1ccc(Nc2nnc(Cc3ccncc3)c3ccccc23)cc1Cl [Example 21, 1-(3,4-Dichloroanilino)-4-(4-pyridylmethyl)phthalazine] | 410 nM | 249 to 250 °C | 
24 | N#Cc1ccc(Nc2nnc(Cc3ccncc3)c3ccccc23)cc1 [Example 24, 1-(4-Cyanoanilino)-4-(4-pyridylmethyl)phthalazine] | 666 nM | 228 to 230 °C | 
25 | COc1cccc(Nc2nnc(Cc3ccncc3)c3ccc(N)cc23)c1 [Example 32F] | 793 nM |  | 
26 | Clc1cccc(Nc2nnc(Cc3ccncc3)c3ccccc23)c1 [Example 5, 1-(3-Chloroanilino)-4-(4-pyridylmethyl)phthalazine 1,8 hydrochloride] | 210 nM |  | 
27 | Nc1ccc2c(Cc3ccncc3)nnc(Nc3cccc(Cl)c3)c2c1 [Example 32B] | 1000 nM |  | 
28 | CC(=O)Nc1ccc2c(Cc3ccncc3)nnc(Nc3ccccc3)c2c1.Cl |  | 162 to 166 °C | 
29 | Clc1ccc(Nc2nnc(OCc3ccncc3)c3ccccc23)cc1 [Example 50, 1-(4-Chloroanilino)-4-(4-pyridylmethoxy)phthalazine] | 195 nM | 139 to 141 °C | 
30 | Clc1ccc(Nc2nnc(Cc3ccncc3)c3cccnc23)cc1 [Example 74, 8-(4-Chloroanilino)-5-(4-pyridylmethyl)pyrido[2,3-d]pyridazine] | 1000 nM | 196 to 197 °C | 
31 | Oc1cccc(Oc2nnc(Cc3ccncc3)c3ccccc23)c1 [Example 56, 1-(3-Hydroxyphenoxy)-4-(4-pyridylmethyl)phthalazine] | 1000 nM | 206 to 207 °C | 
32 | CC(C)c1ccc(Nc2nnc(Cc3ccncc3)c3ccccc23)cc1 [Example 47, 1-(4-Isoprolylanilino)-4-(4-pyridylmethyl)phthalazine dihydrochloride] | 188 nM |  | 
33 | Clc1ccc(Nc2nnc(Cc3ccncc3)c3ncccc23)cc1 [Example 73, 5-(4-Chloroanilino)-8-(4-pyridylmethyl)pyrido[2,3-d]pyridazine] | 397 nM | 220 to 222 °C | 
34 | c1ccc(COc2cccc(Nc3nnc(Cc4ccncc4)c4ccccc34)c2)cc1 [Example 9, 1-(3-Benzyloxyanilino)-4-(4-pyridylmethyl)phthalazine] | 970 nM | 142 to 143 °C | 
35 | c1ccc2c(NC3CCCC3)nnc(Cc3ccncc3)c2c1 [Example 58, 1-Cyclopentylamino-4-(4-pyridylmethyl)phthalazine] | 7300 nM | 163 to 165 °C | 
36 | Oc1ccc(Nc2nnc(Cc3ccncc3)c3ccccc23)cc1 [Example 19, 1-(4-Hydroxyanilino)-4-(4-pyridylmethyl)phthalazine] | 730 nM | 239 to 241 °C | 
37 | [O-][n+]1nc(Nc2ccc(Cl)cc2)c2ccccc2c1Cc1ccncc1 [Example 55, 1-(4-Chloroanilino)-4-(4-pyridylmethyl)phthalazine-3-oxide] |  | 226 to 228 °C | 
38 | Cc1cc(C)cc(Nc2nnc(Cc3ccncc3)c3ccccc23)c1 [Example 46, 1-(3,5-Dimethylanilino)-4-(4-pyridylmethyl)phthalazine] | 349 nM | 174 to 175 °C | 

Row | SMILES | IC50 [1] | melting point | IC50 [1, 2]
39 | C[C@@H](Nc1nnc(Cc2ccncc2)c2ccccc12)c1ccccc1.Cl.Cl |  | 190 °C (dec.) | 
40 | Clc1ccc(Nc2nnc(NCc3ccncc3)c3ccccc23)cc1 [Example 49, 1-(4-Chloroanilino)-4-(4-pyridylmethylamino)phthalazine] |  | 233 to 236 °C | 
41 | CC(=O)c1ccc(Nc2nnc(Cc3ccncc3)c3ccccc23)cc1O [Example 69] | 742 nM | 234 to 236 °C | 
42 | COc1cccc(Nc2nnc(Cc3ccncc3)c3ccccc23)c1 |  | 118 to 120 °C | 
43 | c1cncc(Nc2nnc(Cc3ccncc3)c3ccccc23)c1 [Example 15, 1-(3-Pyridylamino)-4-(4-pyridylmethyl)phthalazine] |  | 137 to 139 °C | 
44 | Oc1cccc(Nc2nnc(Cc3ccncc3)c3ccccc23)c1 |  | 217 to 219 °C | 
45 | CC(C)(C)c1ccc(Nc2nnc(Cc3ccncc3)c3ccccc23)cc1.Cl.Cl |  | 196 to 200 °C | 
46 | COc1cccc(Nc2nnc(Cc3ccncc3)c3ccc(NC(C)=O)cc23)c1.Cl |  | 156 to 159 °C | 
47 | CC(C)c1ccc(Nc2nnc(Cc3ccncc3)c3ccccc23)cc1 (as salt: hydrochloride) [Example 47, 1-(4-Isoprolylanilino)-4-(4-pyridylmethyl)phthalazine dihydrochloride] |  | > 250 °C | 
48 | Nc1ccc2c(Cc3ccncc3)nnc(Nc3ccc(Cl)cc3)c2c1 [Example 32A, 7-Amino-1-(4-chloroanilino)-4-(4-pyridylmethyl)phthalazine hydrochloride] | 42 nM |  | 
49 | CC(c1ccncc1)c1nnc(Nc2ccc(Cl)cc2)c2ccccc12 (racemic) [Example 64, rac 1-(4-Chloroanilino) 4-[1-(4-pyridyl)ethyl]phthalazine] |  |  | 907 nM
50 | COc1cc(Nc2nnc(Cc3ccncc3)c3ccccc23)cc(OC)c1OC [Example 54, 1-(3,4,5-Trimethoxyanilino)-4-(4-pyridylmethyl)phthalazine] |  | 110 to 111 °C | 
51 | Cc1ccc(Nc2nnc(Cc3ccncc3)c3ccc(N)cc23)cc1 [Example 32D] | 480 nM |  | 
52 | CC(=O)Nc1ccc(Nc2nnc(Cc3ccncc3)c3ccccc23)cc1 [Example 11, 1-(4-Acetaminoanilino)-4-(4-pyridylmethyl)phthalazine] |  | > 270 °C | 
53 | Cl.Cl.c1ccc(Nc2nnc(Cc3ccncc3)c3ccccc23)cc1 |  | 217 to 220 °C | 
54 | CC(=O)Nc1ccc2c(Cc3ccncc3)nnc(Nc3ccc(Cl)cc3)c2c1.Cl |  | 260 to 265 °C | 
55 | COc1ccc(Nc2nnc(Cc3ccncc3)c3ccc(NC(C)=O)cc23)cc1.Cl |  | 160 to 163 °C | 
